Measurements taken from patent publication US20240269144A1, “METHODS AND KITS FOR THE DETECTION OF MALIGNANCIES” (H. LEE MOFFITT CANCER CENTER AND RESEARCH INSTITUTE, INC., priority 2021, published 2024).
Like-named read-outs stand apart in the source and are kept apart here.

Legend:
malignant T cells = assay: EVOS drug assay (Cytolight Rapid Green / Cytox Red) on malignant T cells; assay type: cell-based
Protocol: FIGS. 9A, 9B, 9C, and 9D show the effects various anti-cancer agents on malignant T cells. Cells are stained green with the Cytolight Rapid Green Dye—freely pass thru the membrane, however, once inside the dye is transformed into cell-impermeant probe transferred to daughter cells. Once the cells have been stained the dye is removed. Stains live cells. Then the Cytox Red is added and left in the media. Cytox Red moves inside the cells when the cell membrane is compromised. Assays were read at 0, 6, 12, 18 and 24 hrs. Each timepoint is analyzed separately for the designated concentration of Palbociclib (CDK4/6 inhibitor)(9A), Omacetaxine mepesuccinate (HHT)(9B), CX5461 (rRNA synthesis inhibitor)(9C), or BTZO-1 (MIF inhibitor)(9D).
To see the effect of various inhibitors on malignant T cells, we an EVOS drug assay (FIG. 9) measuring varying concentrations and time points for Palbociclib (CDK4/6 inhibitor)(FIG. 9A), Omacetaxine mepesuccinate (HHT)(FIG. 9B), CX5461 (rRNA synthesis inhibitor)(FIG. 9C), and BTZO-1 (MIF inhibitor)(FIG. 9D). By 12 hours, killing of malignant T cells was observed reaching a maximum for all drugs by […].

[1] = system: T-cell lymphoma lines Myla (MF), HH (MF—leukemic phase), Hu78 (SS); assay: OXPHOS inhibitor apoptosis assay (Annexin V/PI), T-cell lymphoma cell lines; assay type: cell-based
[2] = system: acute myeloid leukemia and mantle cell lymphoma tumor cells; settings: pre-clinical models of acute myeloid leukemia and mantle cell lymphoma; cited from earlier work
[3] = system: T-cell lymphoma lines Myla (MF), HH (MF—leukemic phase), Hu78 (SS)
Protocol: MYC inhibitor (MYCi975) cell proliferation assay (right). Indicated cell lines were seeded on 96-well plates and treated with different dose of MYCi975 for 5 days. At day 5, cells were incubated with MTS reagent following manufacture's protocol (Promega Cat #G3580). Absorbance at OD490 nm was recorded and percentage of growth were normalized to vehicle control. Half maximal inhibitory concentration (IC50) was calculated based on curve fitting result using non-linear regression function of GraphPad Prism 8. The symbol represents the mean. The error bars represent the mean±s.e.m. n=12 (MyLa and Jurkat); n=8 (HH, MJ, Hu78).
To determine the sensitivity of CTCL and other T cell lymphomas to OXPHOS and MYC inhibition, we performed pharmacologic perturbation assays using IACS10759 and MYCi975 in MF and other TCL cell lines (FIG. 4F).
Established T-cell lymphoma lines were used for drug assays, including Myla (MF; Sigma Aldrich Cat #95051032), HH (MF—leukemic phase; ATCC Cat #CRL-2105), and Hu78 (SS; ATCC Cat #TIB-161), Jurkat (ATLL) and MJ (ATLL; ATCC Cat #8294).

MYC = MYC (Homo sapiens, UniProt P01106); settings: cited from earlier work
MYC, sequence (P01106 whole entry, species assumed): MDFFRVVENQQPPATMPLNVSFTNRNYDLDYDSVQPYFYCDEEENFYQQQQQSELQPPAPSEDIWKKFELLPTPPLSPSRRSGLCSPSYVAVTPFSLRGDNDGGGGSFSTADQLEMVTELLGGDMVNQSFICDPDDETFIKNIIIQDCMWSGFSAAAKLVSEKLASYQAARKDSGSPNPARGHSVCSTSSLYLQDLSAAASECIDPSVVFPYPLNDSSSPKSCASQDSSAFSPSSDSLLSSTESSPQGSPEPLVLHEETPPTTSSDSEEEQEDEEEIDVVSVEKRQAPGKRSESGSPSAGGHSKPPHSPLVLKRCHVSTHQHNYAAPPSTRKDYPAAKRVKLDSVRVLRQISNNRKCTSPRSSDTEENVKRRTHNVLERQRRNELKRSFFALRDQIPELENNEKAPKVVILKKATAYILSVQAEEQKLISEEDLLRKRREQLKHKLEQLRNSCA

CTCL = settings: MAVORIC trial, cited from earlier work
[4] = malignant T cells, at maximum killing
[5] = in vitro pharmacologic studies, CTCL cell lines

O=c1nc(-c2ccccn2)sc2ccccc12 [BTZO-1]
target cells remaining viable after treatment (malignant T cells): 50%

Cc1cnc(CNC(=O)c2c(=O)c3ccc(N4CCCN(C)CC4)nc3n3c2sc2ccccc23)cn1 [CX5461]
target cells remaining viable after treatment (malignant T cells; [4]): 60-70%

COC(=O)C[C@](O)(CCCC(C)(C)O)C(=O)O[C@@H]1C(OC)=C[C@]23CCCN2CCc2cc4c(cc2[C@H]13)OCO4 [HHT, Omacetaxine mepesuccinate]
target cells remaining viable after treatment (malignant T cells; [4]): 50%

Cc1nc(-c2nc(-c3ccc(OC(F)(F)F)cc3)no2)nn1Cc1cccc(N2CCC(S(C)(=O)=O)CC2)c1 [IACS-010759]
sensitivity to IACS-010759 as assessed by apoptosis ([1]; Myla, HH, Hu78, particularly for Myla, 8 nM, 5 days, Annexin V+PI+): low nanomolar sensitivity
anti-tumor activity in vitro (OXPHOS inhibitor) [1, 5]: potent anti-tumor activity
effect of OXPHOS inhibition on tumor cells [2]: inhibition of tumor cell proliferation and induction of apoptosis

Cn1nc(C(F)(F)F)cc1-c1ccc(OCc2ccc(Cl)cc2)c(-c2ccc(Cl)c(C(F)(F)F)c2)c1O [MYCi975]
sensitivity to MYCi975 as assessed by cell proliferation, cell viability and cytotoxicity (MTS assay) [3]: low micromolar sensitivity
anti-tumor activity in vitro (MYC inhibitor) [3, 5]: potent anti-tumor activity
preclinical in-vivo activity against MYC (MYC): potent preclinical in-vivo activity against MYC

CC(=O)c1c(C)c2cnc(Nc3ccc(N4CCNCC4)cn3)nc2n(C2CCCC2)c1=O [Palbociclib]
target cells remaining viable after treatment (malignant T cells; [4]): 50%

B1: mogamulizumab: anti-CCR4, FDA approved breakthrough therapy for CTCL (antibody, chains of the INN, looked up, V domains shown)
VH: EVQLVESGGDLVQPGRSLRLSCAASGFIFSNYGMSWVRQAPGKGLEWVATISSASTYSYYPDSVKGRFTISRDNAKNSLYLQMNSLRVEDTALYYCGRHSDGNFAFGYWGQGTLVTVSS
VL: DVLMTQSPLSLPVTPGEPASISCRSSRNIVHINGDTYLEWYLQKPGQSPQLLIYKVSNRFSGVPDRFSGSGSGTDFTLKISRVEAEDVGVYYCFQGSLLPWTFGQGTKVEIK
responses in blood, % of patients (CTCL; blood compartment): 49.2%
responses in skin, % of patients (CTCL; skin compartment): 27.4%
ORR (CTCL; mogamulizumab monotherapy, at ≥4 months (b5), at 4 months): 25.3%
median PFS (CTCL; mogamulizumab monotherapy): 7.8 months
